Source: patent US6239284A, “Aromatic tetracyclic compounds of the retinoid type method for preparing and use” (priority 1997, dated 2001)

Columns and labels:
RARα [1] = assay: Transactivation of chimerical receptor RARα-ERcassette, transient transfection of HeLa cells; format: cell-based; details: -9 log M; 100% = TTNPB 10^-8 M
Source text: (§1) The HeLa cells are co-transfected by a plasmid which codes for a retinoic receptor in which the C domain of bonding to the DNA is substituted by that of the receptor to RE estrogens, and a plasmid which places the expression of the luciferase under the control of an ERE (Element of Response to Estrogens). The expressed chimerical receptors are designated as RARα-ERcassette, RARβ-ERcassette, RARγ-ERcassette and RXRα-ERcassette. The A, B, D, E and F regions of the natural receptor are preserved as well as the transcriptional co-operation between the activation domains AF-1 and AF-2. These transitory transfection experiments follow the method of co-precipitation to calcium phosphate. The HeLa cells are co-transfected by […] of plasmid coding for the chimerical receptor, […] of reporter plasmid and […] of expression vector CMV-β-galactosidase used as an internal control of transfection. 24 hours after the transfection, the cells are incubated for 16 hours with the different effectors.
(§2) In this type of chimerical receptor, the C domain of bonding to the DNA of RAR is substituted by that of the receptor to the RE estrogens. The protein obtained is close to the natural RAR receptor and preserves the transcriptional properties of the AF-1 and AF-2 domains. It modulates the transcription by means of an ERE. This RAR-ERcassette model allows one to observe a transcriptional response to a more physiological ligand.
(§3) The study of the selectivity of the compounds was carried out with the RAR-ERcassette chimerical receptors model.
On one and the same line in the Table, the cis (Z) compound represents the isomeric structure of the trans (E) compound.

T-47D cells = assay: Anti-proliferation effect, estrogen-induced growth of T-47D cells; format: cell-based, human; details: Homo sapiens, T47D, 168 h, read-out: T-47D IC50 (growth inhibition by 50%)
Experimental: (§4) So as to test the anti-proliferation effect of the retinoids, growth experiments under oestrogenic conditions were carried out on cells MCF-7 and T-47D. These are the human estrogen-dependent mammary cancer cells which express the receptor to RE estrogens. The effect of the molecules is evaluated after 7 days of culture in oestrogenic conditions (estradiol 10^-9 M) by dosing the cellular DNA. The cells are distributed in 24 well plates at a density of 2×10^4 cells per well. The tests with the different retinoids are carried out in triplicate and the culture medium is changed after 4 days of growth.
(§5) The effect of the retinoids on the growth of MCF-7 and T-47D cells is evaluated after 7 days of culture in the presence of 10^-9 M estradiol by dosing the cellular DNA.

MCF-7 cells = assay: Anti-proliferation effect, estrogen-induced growth of MCF-7 cells; format: cell-based, human; details: Homo sapiens, MCF7, 168 h, read-out: MCF-7 IC50 (growth inhibition by 50%)
Experimental: as §4, §5

RARE = assay: HRLN transactivation (stably transfected HeLa, RARE3-tk-Luc, endogenic receptors); format: cell-based
Source text: The cellular lineages HRLN and HRL+N allow one to study the activation of an RARE by endogenic receptors using ligands at physiological concentrations. These lineages derive from HeLa cells transfected in a stable fashion by a reporter gene which places the expression of the gene of the luciferase under the control of a nuclear response element RARE (RARE3 -tk-Luc). The HeLa cells express all the known receptors of the retinoic acid (RARα,β,γ and RXRα,β,γ) with a predominance of RARα and RXRα. The response element RARE used for the HRLN cells corresponds to the sequence of the natural gene of the RARβ receptor (GGTTCAnnnnnAGTTCA). The HRL+N cells comprise the sequence GAGTGAnnnnnCGGTGA.

AP-1 = assay: Anti-AP-1 effect, MTLN cellular lineage (MCF-7 with (TRE)3-tk-Luc) activated by TPA; format: cell-based, human; details: 10^-7 M TPA, range of several experiments
Experimental: The anti-factor AP-1 transrepressor effect of retinoids is determined using the MTLN lineage, coming from MCF-7 cells transfected in a stable fashion by a vector p(TRE)3 -tk-Luc which places the expression of the gene of luciferase under the control of […]. TPA activates the AP-1 complex formed from proteins of the family of nuclear proto-oncogenes (c-Jun and c-Fos). […] The experiments ware made with the MTLN cells activated by 10^-7 M TPA.
The effect of the compounds on the MTLN cells activated by 10^-7 M TPA is expressed as a percentage. […] The inhibitive properties of the products are calculated after deduction of the base activity of the cells. The percentages reported correspond to a range of inhibitions determined from several experiments.

ERE [2] = assay: Anti-estrogenic effect, MELN cellular lineage (MCF-7 with ERE-βGlob-Luc) activated by estradiol; format: cell-based, human; details: Homo sapiens, read-out: Anti-oestrogenic effect, Inhibition (%)
Experimental: MCF-7 cells express RARα,γ and RXRα. The transfection of MCF-7 cells by an estrogen-dependent gene (ERE-βGlob-Luc) has permitted the establishment of the MELN cellular lineage, used to determine the anti-oestrogenic activity of the retinoids. These cells contain the gene of the luciferase under the transcriptional control of the promoter of the βGlobine and of the response element ERE isolated from the gene of chicken vitelogenine A2. The experiments are carried out with MELN cells activated by 10^-9 M estradiol. The level of base activity of the MELN cells is obtained with the anti-estrogen 1 μM 4-OH-tamoxifen (hydroxytamoxifen).
The effect of the products tested on the cells activated by 10^-9 M estradiol is expressed as a percentage, the level of base activity being deducted.

RAR [3] = assay: RAR-ERcassette model, specificity profile (transient transfection of HeLa cells); format: cell-based
Source text: as §1, §2, §3

ERE [4] = details: cited from earlier work
RAR [5] = assay: GAL-RAR model, specificity profile (transient transfection of HeLa cells)
Source text: (§6) Studies of the transactivational specificity of the retinoids have been carried out by transitory transfection of HeLa cells. Two types of chimerical receptors can then be expressed by the cells. […] The C region (domain of bonding to the DNA) and the A and B regions (AF-1 activation domain) are suppressed.
(§7) These chimerical receptors activated by an agonist specifically stimulate the transcription of the gene of the luciferase present in a co-transfected plasmid ((17M)5-βG-Luc) where 17M is the response element of Gal4.

RARα [6] = assay: Transactivation of chimerical receptor GAL4-RARα, transient transfection of HeLa cells (luciferase)
Source text: as §6, §7

RARβ = assay: Transactivation of chimerical receptor GAL4-RARβ, transient transfection of HeLa cells (luciferase)
Source text: as §6, §7

## CC1=C(/C=C/C(C)=C/C=C/C(C)=C/C(=O)O)C(C)(C)CCC1 [ttRA, all trans retinoic acid]
RARα [1]
  RAR-ERcassette RARα transactivation (%): 65%
T-47D cells
  IC50: 39.1 nM
MCF-7 cells
  IC50: 14.1 ± 10.3 nM
RARE
  HRLN transactivation in words: dose-dependent activation
RARE; Homo sapiens, HeLa, concentrations from 1 nM to 1 μM, read-out: HRLN transactivation EC50
  EC50: 2.5 ± 4 nM
RARE; Homo sapiens, HeLa, read-out: HRLN transactivation E max %
  Emax: 208%
AP-1; -7 log M
  Anti-AP-1 effect, Inhibition (%): 28-44%
AP-1; -8 log M
  Anti-AP-1 effect, Inhibition (%): 22-33%
ERE [2]
  inhibition at 0.1 µM: 35%
RAR [3]
  RAR-ERcassette profile in words: induce an over-expression of luciferase in comparison to the induction brought about by a synthetic compound (TTNPB)
ERE [4]
  Effect on cellular growth and expression of estrogen-dependent genes: reduces the cellular growth and the expression of estrogen-dependent genes
RAR [5]
  GAL-RAR agonist profile in words: good RAR agonists
RARα [6]; Concentration -6 (log M)
  GAL4-RARα activity, % of activity measured for 10^-8 M TTNPB: 108%
RARα [6]; Concentration -7 (log M)
  GAL4-RARα activity, % of activity measured for 10^-8 M TTNPB: 102%
RARα [6]; Concentration -8 (log M)
  GAL4-RARα activity, % of activity measured for 10^-8 M TTNPB: 82%
RARβ; Concentration -6 (log M)
  GAL4-RARβ activity, % of activity measured for 10^-8 M TTNPB: 92%
RARβ; Concentration -7 (log M)
  GAL4-RARβ activity, % of activity measured for 10^-8 M TTNPB: 93%
RARβ; Concentration -8 (log M)
  GAL4-RARβ activity, % of activity measured for 10^-8 M TTNPB: 104%
